Converted amounts (≈) assume the structure as drawn.
Columns and labels:
[1] = test system: Mycobacterium tuberculosis H37Rv; assay: Inhibition of Multidrug resistance efflux pump in Mycobacterium tuberculosis H37Rv assessed as reduction in rifampicin MIC at 1.56 ug/ml measured by ethidium bromide accumulation assay; conditions: dose 1.56 µg/ml
[2] = test system: Mycobacterium tuberculosis; assay: Antimycobacterial activity against multidrug-resistant Mycobacterium tuberculosis FURG-2 assessed as inhibition of bacterial growth measured by Resazurin microtitre assay; type: functional
[3] = test system: Mycobacterium tuberculosis; assay: Inhibition of Multidrug resistance efflux pump in Mycobacterium tuberculosis FURG-2 assessed as relative final fluorescence at 3.12 ug/ml measured by ethidium bromide accumulation assay; conditions: dose 3.12 µg/ml
[4] = test system: Mycobacterium tuberculosis H37Rv; assay: Inhibition of Multidrug resistance efflux pump in Mycobacterium tuberculosis H37Rv assessed as relative final fluorescence at 6.26 ug/ml measured by ethidium bromide accumulation assay; conditions: dose 6.26 µg/ml

O=C(C1=CN(CCc2ccccc2)C(NCCc2ccccc2)CC1)C(F)(F)F (centres undefined)
MIC [1]: 16 µg/mL | MIC [2]: 12.5 µg/mL (≈ 31.1 µM) | RFU [3]: 1.07 | RFU [4]: -0.2

Reference: ChEMBL document CHEMBL4834440, “2,2,2-trifluoro-1-(1,4,5,6-tetrahydropyridin-3-yl)ethanone derivative as efflux pump inhibitor in Mycobacterium tuberculosis” (Bioorg Med Chem Lett, 2021)
